Where “and” joins values, the source holds several entries; their conditions need not be identical. Equal entries are not always repeated.

This experiment concerns LG0703-F948-PDC spheroids with HUVEC/MSC, viability. The experiment in a line: Anticancer human tumor LG0703-F948-PDC patient-derived lung adenocarcinoma cell line growth inhibition [IpAb]. The settings on record: for viability, T/C: stronger effect = lower value. An excerpt: Combinatorial screen of targeted agents with ipatasertib and abemaciclib in multi-cell type tumor spheroids
A high-throughput screen of multi-cell type tumor spheroids was designed to identify active combinations of targeted small molecules and ipatasertib or abemaciclib. Complex spheroids include a stromal component modeled by human endothelial cells (HUVEC) and fibroblasts modeled by human mesenchymal stem cells (MSCs). The concentration ranges selected for each drug and investigational agent were based upon clinically achievable concentrations if the clinical Cmax of the agent was known.
Compounds. The drugs and investigational agents: ipatasertib (NSC767898), abemaciclib(NSC768073), selumetinib (NSC741078), trametinib (758246), adavosertib (NSC754352), everolimus (NSC733504), sapanisertib (NSC764658), vemurafenib (NSC761431), venetoclax (NSC766270), copanlisib (NSC809693), apelisib (NSC765974), palbociblib (NSC758247), vemurafenib (NSC761431), dabrafenib (NSC764134), ravoxertinib (NSC781343), BMS-387032 (NSC767048), sotorasib (NSC818433), talazoparib (NSC767125) and afursertib (NSC778305), were obtained from the National Cancer Institute (NCI) Developmental Therapeutics Program Chemical Repository. The FDA-approved anticancer drug set is available from the NCI Developmental Therapeutics Program. […] The stock solutions were prepared in dimethyl sulfoxide (DMSO, Sigma-Aldrich, St. Louis, MO, cat. D2650) at 800-fold the tested concentration and stored at -70 degrees C prior to their use. All drugs and investigational agents were tested over a range starting from a high concentration at or near the clinical Cmax and decreasing in half-log increments. If the clinical Cmax for an agent had not been determined, the highest concentration tested was 10 microM.
NCI60 Cell Culture. NCI60 cell lines were obtained from the NCI Developmental Therapeutics Program Tumor Repository. For each lot of cells, the Repository performed Applied Biosystems AmpFLSTR Identifiler testing with PCR amplification to confirm consistency with the published Identifier STR profile for each cell line. Cells were kept in continuous culture for no more than 20 passages. The optimal seeding densities for each of the cell lines at each time point assessed were determined prior to performing the concentration response studies. Briefly, the NCI60 human tumor lines were grown as monolayers in RPMI 1640 medium supplemented with 10% FBS and 2 mmol/L L-glutamine.
An additional 9 lines were from the NCI60 cell line panel including MDA-MB-231 breast carcinoma, MDA-MB-468 breast carcinoma, MCF7 breast carcinoma, Hs578T breast carcinoma, MALME-3M melanoma, SK-MEL-2 melanoma, SK-OV-3 ovarian carcinoma, DU-145 prostate carcinoma, PC-3 prostate carcinoma, all cell lines along with major genetic alterations are listed on Table 2. Pooled donor human umbilical vein endothelial cells (HUVEC, Lonza, cat. CC-2519) and human mesenchymal stem cells (hMSC, Lonza, cat. PT-2501) were purchased from Lonza (Walkersville, MD).
PDMR cell lines were grown in complete medium (DC medium): Dulbecco's modified Eagle's medium (DMEM)/F12 supplemented with 5% fetal bovine serum (FBS), 2 mM L-glutamine, 100 U/mL penicillin and 100 µg/ml streptomycin, 0.4 µg/ml hydrocortisone, 10 ng/ml epidermal growth factor (EGF) recombinant human protein, 24 µg/mL adenine, and 0.1 mg/mL primocin. During culture from frozen stock vials, PDMR cells were cultured in the same medium containing 10 µM Y-27632 (see Table 3). The PDCs were cultured in complete DMEM/F12 media without 10 microM Y-27632 dihydrochloride for at least two passages prior to the screen. The pooled donor HUVEC and hMSC were cultured in endothelial cell growth medium 2 (PromoCell, Heidelberg, Germany, cat. C-22011) and mesenchymal stem cell growth medium 2 (PromoCell, cat. C-28009), respectively. For all experiments, HUVEC and hMSC were used at passages </=5.
[…]

Setting [1] is: curve of first compound, second compound 0.01 µM.
The mark [2] stands for this setting: curve of first compound, second compound 0.0316 µM.
[3] abbreviates: curve of first compound, second compound 0.1 µM.
[4] abbreviates: curve of first compound, second compound 0.316 µM.
Where [5] appears, read: curve of first compound, second compound 1 µM.
Setting [6] is: second compound 0.01 µM, first compound 0.0316 µM.
Where [7] appears, read: second compound 0.01 µM, first compound 0.1 µM.
Setting [8] is: second compound 0.01 µM, first compound 0.316 µM.
The mark [9] stands for this setting: second compound 0.01 µM, first compound 1 µM.
Setting [10] is: second compound 0.0316 µM, first compound 0.0316 µM.
The mark [11] stands for this setting: second compound 0.0316 µM, first compound 0.1 µM.
The mark [12] stands for this setting: second compound 0.0316 µM, first compound 0.316 µM.
The mark [13] stands for this setting: second compound 0.0316 µM, first compound 1 µM.
The mark [14] stands for this setting: second compound 0.1 µM, first compound 0.0316 µM.
Where [15] appears, read: second compound 0.1 µM, first compound 0.1 µM.
The mark [16] stands for this setting: second compound 0.1 µM, first compound 0.316 µM.
Where [17] appears, read: second compound 0.1 µM, first compound 1 µM.
[18] abbreviates: second compound 0.316 µM, first compound 0.0316 µM.
[19] abbreviates: second compound 0.316 µM, first compound 0.1 µM.
[20] abbreviates: second compound 0.316 µM, first compound 0.316 µM.
The mark [21] stands for this setting: second compound 0.316 µM, first compound 1 µM.
Where [22] appears, read: second compound 1 µM, first compound 0.0316 µM.
The mark [23] stands for this setting: second compound 1 µM, first compound 0.1 µM.
Where [24] appears, read: second compound 1 µM, first compound 0.316 µM.
The mark [25] stands for this setting: second compound 1 µM, first compound 1 µM.
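Also: spheroids exposed to compounds for seven days before readout.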
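For viability, T/C in this document: T/C percent relative to DMSO vehicle wells set as 100% viability.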

With `CCCS(=O)(=O)Nc1ccc(F)c(C(=O)c2c[nH]c3ncc(-c4ccc(Cl)cc4)cc23)c1F` + CCN1CCN(Cc2ccc(Nc3ncc(F)c(-c4cc(F)c5nc(C)n(C(C)C)c5c4)n3)nc2)CC1, the 50% inhibitory concentration (IC50) was above 10000 nM under setting [1]; above 10000 nM under setting [2]; above 10000 nM under setting [3]; above 10000 nM under setting [4]; above 10000 nM under setting [5]. The viability, T/C reads like this: under setting [6], 112%; under setting [7], 115%; under setting [8], 101%; under setting [9], 99.1%; (second compound 0.01 µM, first compound 3.16 µM) 100%; (second compound 0.01 µM, first compound 10 µM) 59.5%. Moreover, the viability, T/C was 94.5% under setting [10]; 86.9% under setting [11]; 95.1% under setting [12]; 89.5% under setting [13]; 90.9% (second compound 0.0316 µM, first compound 3.16 µM); 67.2% (second compound 0.0316 µM, first compound 10 µM). In addition, the viability, T/C runs as follows: under setting [14], 91%; under setting [15], 81.6%; under setting [16], 91.7%; under setting [17], 90.9%; (second compound 0.1 µM, first compound 3.16 µM) 87.2%; (second compound 0.1 µM, first compound 10 µM) 59.1%. The viability, T/C under setting [18] was 89%; the viability, T/C under setting [19] was 97.3%; the viability, T/C under setting [20] is 76.6%; the viability, T/C under setting [21] is 88.1%; the viability, T/C (second compound 0.316 µM, first compound 3.16 µM) was 79%; the viability, T/C (second compound 0.316 µM, first compound 10 µM) is 51.5%. Further, the viability, T/C was 90.6% under setting [22]; 68.2% under setting [23]; 52.5% under setting [24]; 80% under setting [25]; 75.6% (second compound 1 µM, first compound 3.16 µM); 44.8% (second compound 1 µM, first compound 10 µM).
Turning to `COc1c(OCCCN2CCOCC2)ccc2c3n(c(=NC(=O)c4cnc(N)nc4)nc12)CCN3` + CCN1CCN(Cc2ccc(Nc3ncc(F)c(-c4cc(F)c5nc(C)n(C(C)C)c5c4)n3)nc2)CC1, the half-inhibitory concentration (IC50) stood at 36.7 nM under setting [1]; 32.2 nM under setting [2]; 30.6 nM under setting [3]; 25.3 nM under setting [4]; 17 nM under setting [5]. Also, the viability, T/C (second compound 0.01 µM, first compound 0.00316 µM) was 101%; the viability, T/C (second compound 0.01 µM, first compound 0.01 µM) was 79.2%; the viability, T/C under setting [6] is 58.3%; the viability, T/C under setting [7] was 20.7%; the viability, T/C under setting [8] was 5.32%; the viability, T/C under setting [9] was 3.66%. For the same compound, the viability, T/C by setting is: (second compound 0.0316 µM, first compound 0.00316 µM) 90.4%; (second compound 0.0316 µM, first compound 0.01 µM) 82.8%; under setting [10], 47.6%; under setting [11], 22.8%; under setting [12], 4.08%; under setting [13], 3.07%. Besides, the viability, T/C is 85.4% (second compound 0.1 µM, first compound 0.00316 µM); 77.1% (second compound 0.1 µM, first compound 0.01 µM); 48% under setting [14]; 21.2% under setting [15]; 5.61% under setting [16]; 3.57% under setting [17]. Also, the viability, T/C runs as follows: (second compound 0.316 µM, first compound 0.00316 µM) 81.6%; (second compound 0.316 µM, first compound 0.01 µM) 71.2%; under setting [18], 43.7%; under setting [19], 23.7%; under setting [20], 9.48%; under setting [21], 9.41%. The viability, T/C (second compound 1 µM, first compound 0.00316 µM) was 82.3%; the viability, T/C (second compound 1 µM, first compound 0.01 µM) is 63%; the viability, T/C under setting [22] was 33.9%; the viability, T/C under setting [23] was 24.6%; the viability, T/C under setting [24] is 19.3%; the viability, T/C under setting [25] was 11.8%.
Regarding `CC(C)n1nc(-c2ccc3oc(N)nc3c2)c2c(N)ncnc21`, the viability, T/C reads like this: (compound 0.000316 µM) 87.8% and 89.9%; (compound 0.001 µM) 66.2% and 83.2%; (compound 0.00316 µM) 52% and 57.7%; (compound 0.01 µM) 32.2% and 35.2%; (compound 0.0316 µM) 19.4% and 23.2%; (compound 0.1 µM) 19.6% and 22.4%. The IC50 (curve of compound) was 2.95 nM and 4.75 nM.
As to `CCN1CCN(Cc2ccc(Nc3ncc(F)c(-c4cc(F)c5nc(C)n(C(C)C)c5c4)n3)nc2)CC1`, the viability, T/C (compound 0.0316 µM) is 97% [middle of 13 runs]; the viability, T/C (compound 0.1 µM) is 91% [middle of 12 runs]; the viability, T/C (compound 0.316 µM) is 83.5% [middle of 13 runs]. Besides, the IC50 (compound alone, run of 06/01/2021) was above 1000 nM.

A word on the IC50: it is the concentration that inhibits the measured activity by half. In general, viability, T/C refers to the ratio of treated to control.

The record behind these values is PubChem BioAssay AID2060330 (Molecular Pharmacology Branch, DTP, NCI, 2025).
